The values that follow come from paper PMC10141580, “Cyclic Dichalcogenides Extend the Reach of Bioreductive Prodrugs to Harness Thiol/Disulfide Oxidoreductases: Applications to seco-Duocarmycins Targeting the Thioredoxin System” (ACS Central Science, 2023).

The test system of one data set is mouse. The experiment in a line: Tolerability for repeated dose administration in vivo (summary). Conditions: for remarks: repeated dose administration; for well-tolerated dose: weekly or twice-weekly administration.
The subject of the next data set is HeLa-HRE cells. The experiment in a line: Resazurin cytotoxicity assay, HeLa-HRE, 48 h. Conditions: for IC50(HeLa)/IC50(A549): ratio HeLa vs A549. On the technique in general: The colour change of resazurin is a common sign of viable cells or microbes.
For another data set, the system named is MEF TrxR1-ko cells. The experiment in a line: Resazurin cytotoxicity assay, MEF TrxR1 knockout, 72 h. Conditions: MEF TrxR1-ko vs wt (fl/fl).
[1] abbreviates: read-out: IC50(nM): HeLa, HeLa, 48 h.

Where two headings read alike, the source gives them in different places. Bounds are passed on as bounds.

Experimental for HeLa-HRE cells: We used A549 lung cancer and HeLa cervical cancer cell lines for initial screening of the prodrugs.
HeLa-HRE cells were treated with prodrugs of the
Dose -response curves were calculated from at least 27 incremental single concentrations over a
range of at least three log units.
Text for MEF TrxR1-ko cells: A TrxR1 knockout (ko) in mouse embryonic fibroblast (MEF) cells is, however, accessible. We compared its prodrug sensitivity to that of its parental line[49] (wild-type, wt), on the basis that TrxR1-ko should leave most Trx1 in its oxidized state (only a fraction of it can be maintained in the reduced state by alternative reductants such as Grx2),[50] so prodrugs relying on the cytosolic thioredoxin system (Trx1/TrxR1) for most of their bioreductive activation in long-term assays will have lower potency in TrxR1-ko cells.
MEF cells (ko vs. wt) we r e treated with prodrugs of the CBI-TMI and CBI-AZI series for
72 h at concentrations from 10 pm t o 3 0 µM at 27 incremental single concentrations depending on expected
potencies of the constructs. Data from at least 3 individual experiments was combined (no error bars shown for
clarity) for each cell line.

As to `COc1cc2cc(C(=O)N3CC(CCl)c4c3cc(OC(=O)N3CCN(C)C5CSSCC53)c3ccccc43)[nH]c2c(OC)c1OC` (mixture of isomers) [Me-SS66C-CBI-TMI], in the data set with mouse, the remarks result was “well tolerated” and the “well-tolerated dose” value was found to be 3 mg/kg. For the same molecule, the IC50 – broadly, the concentration needed to halve the response being measured – with HeLa-HRE cells (setting [1]) was found to be 220 nM. For the same molecule, in the data set on MEF TrxR1-ko cells, the “fold change of potency wt → ko” value is 4 ×.
In the case of `COc1cc2cc(C(=O)N3CC(CCl)c4c3cc(OC(=O)N3CCN(C)C5CSSCC53)c3ccccc43)[nH]c2c(OC)c1OC` (mixture of isomers) [Me-SS66T-CBI-TMI], in the data set on mouse, the remarks result is on record as “well tolerated” and the “well-tolerated dose” value turned out to be 3 mg/kg. The “IC50(HeLa)/IC50(A549)” value with HeLa-HRE cells turned out to be 10. Also, the IC50 in the data set with HeLa-HRE cells (setting [1]) was 59 nM. The “fold change of potency wt → ko” value in the data set on MEF TrxR1-ko cells turned out to be 2 ×.
In the case of `COc1cc2cc(C(=O)N3C[C@@H](CCl)c4c3cc(OC(=O)N(CCC(=O)N3CCN(C)CC3)C3CCCCC3)c3ccccc43)[nH]c2c(OC)c1OC` [P-CC60-CBI-TMI], in the data set with mouse, the remarks result is reported as “well tolerated”. The “well-tolerated dose” value with mouse amounted to 3 mg/kg. Also, the IC50 with HeLa-HRE cells (initial screening, A549 and HeLa cell lines) is more than 1000 nM; in the data set on HeLa-HRE cells (setting [1]), 1250 nM. In the data set with HeLa-HRE cells, the “IC50(HeLa)/IC50(A549)” value amounted to 0.7.
In the case of `COc1cc2cc(C(=O)N3C[C@@H](CCl)c4c3cc(OC(=O)N(CCC(=O)N3CCN(C)CC3)[C@H]3CCSSC3)c3ccccc43)[nH]c2c(OC)c1OC` [P-SS60-CBI-TMI], in the data set with mouse, the remarks entry is reported as “well tolerated” and the “well-tolerated dose” value was 3 mg/kg. The “IC50(HeLa)/IC50(A549)” value in the data set with HeLa-HRE cells is listed as 2.3. In addition, the IC50 in the data set on HeLa-HRE cells (setting [1]) was determined as 420 nM.
Turning to `COc1cc2cc(C(=O)N3C[C@@H](CCl)c4c3cc(OC(=O)N3CCN(C(=O)CCC(=O)N5CCN(C)CC5)[C@H]5CSSC[C@H]53)c3ccccc43)[nH]c2c(OC)c1OC` [P-SS66C-CBI-TMI], in the data set on mouse, the remarks result is given as “well tolerated” and the “well-tolerated dose” value worked out at 3 mg/kg. Besides, the IC50 in the data set with HeLa-HRE cells (Homo sapiens, HeLa, 48 h, read-out: IC50(nM): HeLa) came out at 200 nM. In addition, the “IC50(HeLa)/IC50(A549)” value in the data set on HeLa-HRE cells worked out at 17. The “fold change of potency wt → ko” value in the data set with MEF TrxR1-ko cells came to 3 ×.
